Data reported in patent US8399681B2, “Substituted aminothiazolone indazoles as estrogen related receptor-alpha modulators” (Janssen Pharmaceutica NV, priority 2009, dated 2013).

Each compound was assayed against T1, ERR1 (also known as ERR-α or ERR-1) (Homo sapiens, UniProt P11474) (assay: TR-FRET assay (disruption of co-activator peptide binding)). Details: 6His-tagged ERR1 LBD, GST-hSRC2 co-activator polypeptide; average of 3 independent experiments.
T1 sequence (P11474 193-421 limits assumed): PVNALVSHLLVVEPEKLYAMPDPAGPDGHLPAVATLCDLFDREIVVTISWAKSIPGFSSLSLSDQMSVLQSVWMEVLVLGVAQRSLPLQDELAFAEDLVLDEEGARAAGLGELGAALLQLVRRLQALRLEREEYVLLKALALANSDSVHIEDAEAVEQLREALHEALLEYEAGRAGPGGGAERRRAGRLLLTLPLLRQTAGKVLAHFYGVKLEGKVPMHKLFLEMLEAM
Type: biochemical
Summary of the method: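 Compound-induced loss of co-activator recruitment, read by time-resolved FRET (excitation 340 nm; 615 and 665 nm emission) after 4-18 h at 25 °C. Reagents: 6 nM ERR1LBD, 6 nM GST-SRC-2, 30 nM Eu cryptate, 7.5 nM XL665, pH 8 Tris buffer. Values: hyperbolic fits averaged over 3 independent runs.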

SMILES	EC50
CS(=O)(=O)NC1CCN(C2=NC(=O)/C(=C/c3ccc4c(cnn4Cc4ccc(Cl)cc4C(F)(F)F)c3)S2)CC1 [Example 111, N-(1-{5-[1-(4-Chloro-2-trifluoromethyl-benzyl)-1H-indazol-5-ylmethylene]-4-oxo-4,5-dihydro-thiazol-2-yl}-piperidin-4-yl)-methanesulfonamide]	6.9 nM
COCC(=O)N1[C@H](C)CN(C2=NC(=O)/C(=C/c3ccc4c(cnn4Cc4ccc(Cl)cc4C(F)(F)F)c3)S2)C[C@@H]1C [Example 88, 5-[1-(4-Chloro-2-trifluoromethyl-benzyl)-1H-indazol-5-ylmethylene]-2-[4-(2-methoxy-acetyl)cis-3,5-dimethyl-piperazin-1-yl]-thiazol-4-one]	13 nM
O=C1N=C(N2CC3COC(=O)C3C2)S/C1=C\c1ccc2c(cnn2Cc2ccc(Cl)cc2C(F)(F)F)c1 (stereo not shown) [Example 144, 5-{5-[1-(4-Chloro-2-trifluoromethyl-benzyl)-1H-indazol-5-ylmethylene]-4-oxo-4,5-dihydro-thiazol-2-yl}-hexahydro-furo[3,4-c]pyrrol-1-one]	14 nM
O=C1N=C(N2CCC(n3cccn3)CC2)S/C1=C\c1ccc2c(cnn2Cc2ccc(Cl)cc2C(F)(F)F)c1 [Example 157, 5-[1-(4-Chloro-2-trifluoromethyl-benzyl)-1H-indazol-5-ylmethylene]-2-(4-pyrazol-1-yl-piperidin-1-yl)-thiazol-4-one]	35 nM
O=C1N=C(N2CCN(CC(F)F)CC2)S/C1=C\c1ccc2c(cnn2Cc2ccc(Cl)cc2C(F)(F)F)c1 [Example 61, 5-[1-(4-Chloro-2-trifluoromethyl-benzyl)-1H-indazol-5-ylmethylene]-2-[4-(2,2-difluoro-ethyl)-piperazin-1-yl]-thiazol-4-one]	19.6 nM
O=C(O)COC1CCN(C2=NC(=O)/C(=C/c3ccc4c(cnn4Cc4ccc(Cl)cc4C(F)(F)F)c3)S2)CC1 [Example 131]	7.8 nM
COc1ccc(Cn2ncc3cc(/C=C4\SC(N5CC[C@H]5C(=O)O)=NC4=O)ccc32)c(C(F)(F)F)c1 [Example 50, 1-{5-[1-(4-Methoxy-2-trifluoromethyl-benzyl)-1H-indazol-5-ylmethylene]-4-oxo-4,5-dihydro-thiazol-2-yl}-azetidine-2-(S)-carboxylic acid]	7.8 nM
N#Cc1nn(Cc2ccc(Cl)cc2C(F)(F)F)c2ccc(/C=C3\SC(N4CCN(CC5CC5)CC4)=NC3=O)cc12 [Example 224, 1-[4-Chloro-2-(trifluoromethyl)benzyl]-5-({2-[4-(cyclopropylmethyl)piperazin-1-yl]-4-oxo-1,3-thiazol-5(4H)-ylidene}methyl)-1H-indazole-3-carbonitrile]	70 nM
O=C1N=C(N2CCC(c3nnn[nH]3)CC2)S/C1=C\c1ccc2c(cnn2Cc2ccc(Cl)cc2C(F)(F)F)c1 [Example 110, 5-[1-(4-Chloro-2-trifluoromethyl-benzyl)-1H-indazol-5-ylmethylene]-2-[4-(1H-tetrazol-5-yl)-piperidin-1-yl]-thiazol-4-one]	18.6 nM
CN1CCN(C2=NC(=O)/C(=C/c3ccc4c(cnn4Cc4ccc(Cl)cc4I)c3)S2)CC1 [Example 96, 5-[1-(4-Chloro-2-iodo-benzyl)-1H-indazol-5-ylmethylene]-2-(4-methyl-piperazin-1-yl)-thiazol-4-one]	64 nM
N[C@H]1CCCN(C2=NC(=O)/C(=C/c3ccc4c(cnn4Cc4ccc(Cl)cc4C(F)(F)F)c3)S2)C1 [Example 60, 2-(3-(S)-Amino-piperidin-1-yl)-5-[1-(4-chloro-2-trifluoromethyl-benzyl)-1H-indazol-5-ylmethylene]-thiazol-4-one]	19.7 nM
CN1C[C@@H]2C[C@H]1CN2C1=NC(=O)/C(=C/c2ccc3c(cnn3Cc3ccc(Cl)cc3C(F)(F)F)c2)S1 [Example 78, 5-[1-(4-Chloro-2-trifluoromethyl-benzyl)-1H-indazol-5-ylmethylene]-2-(5-methyl-2S,5S-diaza-bicyclo[2.2.1]hept-2-yl)-thiazol-4-one]	4.5 nM
O=C1N=C(N2CC(C(=O)O)C2)S/C1=C\c1ccc2c(cnn2Cc2ccc(Cl)cc2C2CC2)c1 [Example 94, 1-(5-[1-(4-Chloro-2-cyclopropyl-benzyl)-1H-indazol-5-ylmethylene]-4-oxo-dihydro-thiazol-2-yl)-azetidine-3-carboxylic acid]	26 nM

Other lines, results leading:

EC50	SMILES
28 nM	CCOC(=O)N1CCCN(C2=NC(=O)/C(=C/c3ccc4c(cnn4Cc4ccc(C(F)(F)F)cc4C(F)(F)F)c3)S2)CC1 [Example 129, 4-{5-[1-(2,4-Bis-trifluoromethyl-benzyl)-1H-indazol-5-ylmethylene]-4-oxo-4,5-dihydro-thiazol-2-yl}-[1,4]diazepane-1-carboxylic acid ethyl ester]
190 nM	CN(C)[C@@H]1CCN(C2=NC(=O)/C(=C/c3ccc4c(cnn4Cc4ccc(C(F)(F)F)cc4C(F)(F)F)c3)S2)C1 [Example 252, 5-({1-[2,4-Bis(trifluoromethyl)benzyl]-1H-indazol-5-yl}methylidene)-2-[(3R)-3-(dimethylamino)pyrrolidin-1-yl]-1,3-thiazol-4(5H)-one]
9 nM	CN1CCN(C2=NC(=O)/C(=C/c3ccc4c(cnn4Cc4ccc(C(F)(F)F)cc4C(F)(F)F)c3)S2)CC1CCO (stereo not shown) [Example 168, 5-[1-(2,4-Bis-trifluoromethyl-benzyl)-1H-indazol-5-ylmethylene]-2-[3-(2-hydroxy-ethyl)-4-methyl-piperazin-1-yl]-thiazol-4-one]
23 nM	CN1CCN(C2=NC(=O)/C(=C/c3ccc4c(cnn4Cc4ccc(C(F)(F)F)cc4C(F)(F)F)c3)S2)CC1(C)C [Example 219, 5-({1-[2,4-Bis(trifluoromethyl)benzyl]-1H-indazol-5-yl}methylidene)-2-(3,3,4-trimethylpiperazin-1-yl)-1,3-thiazol-4(5H)-one]
14 nM	COc1ccc(Cn2ncc3cc(/C=C4\SC(N5CCN[C@@H](CO)C5)=NC4=O)ccc32)c(C(F)(F)F)c1 [Example 248, 2-[3-(R)-(Hydroxymethyl)piperazin-1-yl]-5-({1-[4-methoxy-2-(trifluoromethyl)benzyl]-1H-indazol-5-yl}methylidene)-1,3-thiazol-4(5H)-one]
61 nM	O=C1N=C(N2CCCNCC2)S/C1=C\c1ccc2c(cnn2Cc2ccc(C(F)(F)F)cc2C(F)(F)F)c1 [Example 55, 5-[1-(2,4-Bis-trifluoromethyl-benzyl)-1H-indazol-5-ylmethylene]-2-[1,4]diazepan-1-yl-thiazol-4-one]
14.3 nM	O=C1N=C(N2CCC[C@H](C(=O)O)C2)S/C1=C\c1ccc2c(cnn2Cc2ccc(Cl)cc2C(F)(F)F)c1 [Example 48, 1-{5-[1-(4-Chloro-2-trifluoromethyl-benzyl)-1H-indazol-5-ylmethylene]-4-oxo-4,5-dihydro-thiazol-2-yl}piperidine-3-(S)-carboxylic acid]
36 nM	O=C1N=C(N2CCC(c3nnn[nH]3)CC2)S/C1=C\c1ccc2c(cnn2Cc2ccc(C(F)(F)F)cc2C(F)(F)F)c1 [Example 109, 5-[1-(2,4-Bis-trifluoromethyl-benzyl)-1H-indazol-5-ylmethylene]-2-[4-(1H-tetrazol-5-yl)piperidin-1-yl]-thiazol-4-one]
4.6 nM	O=C1N=C(N2CCN(CCO)CC2)S/C1=C\c1ccc2c(cnn2Cc2ccc(C3CC3)cc2C(F)(F)F)c1 [Example 31, 5-[1-(4-Cyclopropyl-2-trifluoromethyl-benzyl)-1H-indazol-5-ylmethylene]-2-[4-(2-hydroxy-ethyl)-piperazin-1-yl]-thiazol-4-one]
3 nM	O=C1N=C(N2CCO[C@H](CO)C2)S/C1=C\c1ccc2c(c1)c(Cl)nn2Cc1ccc(C(F)(F)F)cc1C(F)(F)F [Example 184, 5-[1-(2,4-Bis-trifluoromethyl-benzyl)-3-chloro-1H-indazol-5-ylmethylene]-2-(2-(S)-hydroxymethyl-morpholin-4-yl)-thiazol-4-one]
24.9 nM	COCCN1CCN(C2=NC(=O)/C(=C/c3ccc4c(cnn4Cc4ccc(C(F)(F)F)cc4C(F)(F)F)c3)S2)CC1 [Example 66, 5-[1-(2,4-Bis-trifluoromethyl-benzyl)-1H-indazol-5-ylmethylene]-2-[4-(2-methoxy-ethyl)-piperazin-1-yl]-thiazol-4-one]
47 nM	NCC1CN(C2=NC(=O)/C(=C/c3ccc4c(cnn4Cc4ccc(C(F)(F)F)cc4C(F)(F)F)c3)S2)CCO1 (stereo not shown) [Example 201, 2-[2-(Aminomethyl)morpholin-4-yl]-5-({1-[2,4-bis(trifluoromethyl)benzyl]-1H-indazol-5-yl}methylidene)-1,3-thiazol-4(5H)-one]
38 nM	CN(C)CC1CN(C2=NC(=O)/C(=C/c3ccc4c(cnn4Cc4ccc(C(F)(F)F)cc4C(F)(F)F)c3)S2)CCO1 (stereo not shown) [Example 171, 5-[1-(2,4-Bis-trifluoromethyl-benzyl)-1H-indazol-5-ylmethylene]-2-(2-dimethylaminomethyl-morpholin-4-yl)-thiazol-4-one]
30 nM	N[C@@H]1C[C@H](CO)N(C2=NC(=O)/C(=C/c3ccc4c(cnn4Cc4ccc(C(F)(F)F)cc4C(F)(F)F)c3)S2)C1 [Example 258, 2-[(2R,4R)-4-Amino-2-(hydroxymethyl)pyrrolidin-1-yl]-5-({1-[2,4-bis(trifluoromethyl)benzyl]-1H-indazol-5-yl}methylidene)-1,3-thiazol-4(5H)-one]
8.4 nM	CN[C@H]1CCN(C2=NC(=O)/C(=C/c3ccc4c(cnn4Cc4ccc(Cl)cc4C(F)(F)F)c3)S2)C1 (stereo in doubt) [Example 115, 5-[1-(4-Chloro-2-trifluoromethyl-benzyl)-1H-indazol-5-ylmethylene]-2-(3-methylamino-pyrrolidin-1-yl)-thiazol-4-one]
